Assays:
lipoamide = compound: NC(=O)CCCCC1CCSS1 [lipoamide]; experiment: thermal stability z-score vs DMSO; higher = more thermally stabilized by treatment; conditions: HeLa, lipoamide concentration 100 µM
Procedure: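 Cellular thermal proteome profiling in HeLa cells. Cells were treated with 100 µM lipoamide for 1 h, with or without 1 mM arsenate for a further 1 h, then heated to ten temperatures (37-66.3 °C), and soluble protein was quantified by TMT mass spectrometry relative to 0.1% DMSO controls. The thermal stability score (sum of log2 fold changes minus the abundance score) was transformed to a z-score; mean of n = 3 experiments.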

potassium arsenate = compound: O=[As]([O-])(O)O.[K+] [potassium arsenate]; experiment: as above; conditions: HeLa; arsenate concentration 1 mM
Procedure: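 Cellular thermal proteome profiling in HeLa cells treated with 1 mM arsenate for 1 h (DMSO pretreatment), heated to ten temperatures (37-66.3 °C). Soluble protein was quantified by TMT mass spectrometry relative to DMSO controls; the thermal stability score was transformed to a z-score; mean of n = 3 experiments.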

[1] = arsenate co-treatment: 1 mM arsenate 1 h
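Further: each temperature applied for 3 min, abundance score taken as mean log2 fold change at the two lowest temperatures, z-score obtained by mean subtraction and division by SD.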

UniProt Q96IY1, sequence (Q96IY1 whole entry): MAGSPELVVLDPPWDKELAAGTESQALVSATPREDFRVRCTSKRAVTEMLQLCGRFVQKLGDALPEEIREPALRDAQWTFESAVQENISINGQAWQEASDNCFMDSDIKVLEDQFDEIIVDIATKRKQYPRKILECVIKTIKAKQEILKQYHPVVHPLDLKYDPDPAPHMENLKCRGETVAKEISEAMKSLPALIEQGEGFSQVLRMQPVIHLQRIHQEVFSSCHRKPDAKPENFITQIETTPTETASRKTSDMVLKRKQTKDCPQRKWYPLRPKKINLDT
UniProt A8MXV4, sequence (A8MXV4 whole entry): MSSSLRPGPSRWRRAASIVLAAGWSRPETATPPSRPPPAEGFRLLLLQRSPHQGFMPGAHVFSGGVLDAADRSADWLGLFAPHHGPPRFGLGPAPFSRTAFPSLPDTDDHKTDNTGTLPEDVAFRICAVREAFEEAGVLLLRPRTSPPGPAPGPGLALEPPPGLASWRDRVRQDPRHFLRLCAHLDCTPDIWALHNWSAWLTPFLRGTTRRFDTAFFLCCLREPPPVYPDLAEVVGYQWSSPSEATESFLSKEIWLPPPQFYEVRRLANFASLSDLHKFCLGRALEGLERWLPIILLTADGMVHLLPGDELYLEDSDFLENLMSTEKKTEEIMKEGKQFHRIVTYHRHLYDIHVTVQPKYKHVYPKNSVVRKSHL
UniProt Q9UNZ2, sequence (Q9UNZ2 whole entry): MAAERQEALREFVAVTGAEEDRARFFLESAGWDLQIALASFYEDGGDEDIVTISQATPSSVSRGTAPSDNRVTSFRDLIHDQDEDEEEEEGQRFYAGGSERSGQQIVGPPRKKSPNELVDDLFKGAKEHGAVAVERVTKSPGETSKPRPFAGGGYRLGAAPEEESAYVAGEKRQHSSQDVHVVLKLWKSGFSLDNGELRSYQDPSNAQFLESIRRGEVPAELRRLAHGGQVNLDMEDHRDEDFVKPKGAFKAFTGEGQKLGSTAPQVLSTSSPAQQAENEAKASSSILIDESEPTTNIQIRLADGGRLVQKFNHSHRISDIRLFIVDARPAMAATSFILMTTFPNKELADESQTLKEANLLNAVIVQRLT
UniProt Q9BQG2, sequence (Q9BQG2 whole entry): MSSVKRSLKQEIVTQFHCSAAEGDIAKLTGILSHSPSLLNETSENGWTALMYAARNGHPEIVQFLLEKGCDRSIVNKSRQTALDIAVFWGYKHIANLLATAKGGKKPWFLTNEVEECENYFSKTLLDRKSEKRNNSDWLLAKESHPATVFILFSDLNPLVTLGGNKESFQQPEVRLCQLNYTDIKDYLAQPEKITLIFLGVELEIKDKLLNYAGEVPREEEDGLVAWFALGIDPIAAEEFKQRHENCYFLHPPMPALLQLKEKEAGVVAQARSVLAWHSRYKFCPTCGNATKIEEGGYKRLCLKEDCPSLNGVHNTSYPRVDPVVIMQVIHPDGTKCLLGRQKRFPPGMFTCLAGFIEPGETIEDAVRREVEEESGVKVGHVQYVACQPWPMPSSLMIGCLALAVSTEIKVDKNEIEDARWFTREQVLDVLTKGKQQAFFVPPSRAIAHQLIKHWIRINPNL
UniProt O43847, sequence (O43847 whole entry): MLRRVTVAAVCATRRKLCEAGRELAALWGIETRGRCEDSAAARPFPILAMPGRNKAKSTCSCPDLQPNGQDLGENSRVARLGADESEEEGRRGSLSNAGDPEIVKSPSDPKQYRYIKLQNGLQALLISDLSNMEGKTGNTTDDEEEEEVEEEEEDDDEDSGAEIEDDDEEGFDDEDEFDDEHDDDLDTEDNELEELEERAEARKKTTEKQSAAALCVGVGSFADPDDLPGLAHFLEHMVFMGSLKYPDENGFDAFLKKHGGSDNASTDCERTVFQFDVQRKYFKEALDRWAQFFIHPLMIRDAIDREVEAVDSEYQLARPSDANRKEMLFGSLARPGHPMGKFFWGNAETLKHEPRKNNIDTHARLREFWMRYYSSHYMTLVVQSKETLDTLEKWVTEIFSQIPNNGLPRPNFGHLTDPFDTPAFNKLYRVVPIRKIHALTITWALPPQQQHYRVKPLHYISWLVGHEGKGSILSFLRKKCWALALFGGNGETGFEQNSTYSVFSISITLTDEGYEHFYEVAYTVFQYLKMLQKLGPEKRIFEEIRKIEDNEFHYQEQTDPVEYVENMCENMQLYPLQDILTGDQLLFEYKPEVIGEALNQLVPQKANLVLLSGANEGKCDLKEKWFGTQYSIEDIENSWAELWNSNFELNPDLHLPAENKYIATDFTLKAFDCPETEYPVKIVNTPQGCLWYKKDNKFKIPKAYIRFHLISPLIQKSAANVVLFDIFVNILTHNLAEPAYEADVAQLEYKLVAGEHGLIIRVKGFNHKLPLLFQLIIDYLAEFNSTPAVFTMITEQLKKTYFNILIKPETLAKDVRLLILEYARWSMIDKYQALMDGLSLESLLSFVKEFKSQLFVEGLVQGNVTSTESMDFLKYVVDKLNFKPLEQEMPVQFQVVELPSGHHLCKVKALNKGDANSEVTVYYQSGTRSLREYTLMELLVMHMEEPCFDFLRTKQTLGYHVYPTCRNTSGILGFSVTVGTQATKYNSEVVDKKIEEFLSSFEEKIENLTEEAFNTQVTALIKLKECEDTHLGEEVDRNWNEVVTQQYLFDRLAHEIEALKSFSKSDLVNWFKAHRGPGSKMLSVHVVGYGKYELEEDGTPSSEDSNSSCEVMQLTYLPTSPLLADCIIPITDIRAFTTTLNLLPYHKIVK
UniProt Q8WVJ2, sequence (Q8WVJ2 whole entry): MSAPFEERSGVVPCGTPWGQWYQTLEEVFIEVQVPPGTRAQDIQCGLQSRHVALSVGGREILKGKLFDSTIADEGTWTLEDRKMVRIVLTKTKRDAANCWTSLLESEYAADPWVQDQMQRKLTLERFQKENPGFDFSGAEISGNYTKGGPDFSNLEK
UniProt Q9Y6R0, sequence (Q9Y6R0 whole entry): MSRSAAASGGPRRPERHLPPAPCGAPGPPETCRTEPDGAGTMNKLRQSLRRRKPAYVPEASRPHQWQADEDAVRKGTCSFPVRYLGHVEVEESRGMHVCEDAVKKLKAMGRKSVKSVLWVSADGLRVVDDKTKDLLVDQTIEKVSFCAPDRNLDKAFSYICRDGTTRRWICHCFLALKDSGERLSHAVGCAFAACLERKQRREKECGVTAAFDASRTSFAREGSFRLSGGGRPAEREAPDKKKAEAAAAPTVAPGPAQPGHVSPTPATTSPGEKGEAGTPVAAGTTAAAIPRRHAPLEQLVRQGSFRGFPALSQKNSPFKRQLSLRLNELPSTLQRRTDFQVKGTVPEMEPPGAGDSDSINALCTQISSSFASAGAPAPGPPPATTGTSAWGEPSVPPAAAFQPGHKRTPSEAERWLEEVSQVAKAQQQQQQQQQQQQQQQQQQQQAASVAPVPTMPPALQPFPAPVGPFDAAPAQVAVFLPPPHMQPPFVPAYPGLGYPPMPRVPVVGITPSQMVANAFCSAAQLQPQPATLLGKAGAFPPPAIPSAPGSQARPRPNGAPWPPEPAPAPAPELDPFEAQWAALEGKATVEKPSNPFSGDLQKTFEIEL
UniProt P49757, sequence (P49757 whole entry): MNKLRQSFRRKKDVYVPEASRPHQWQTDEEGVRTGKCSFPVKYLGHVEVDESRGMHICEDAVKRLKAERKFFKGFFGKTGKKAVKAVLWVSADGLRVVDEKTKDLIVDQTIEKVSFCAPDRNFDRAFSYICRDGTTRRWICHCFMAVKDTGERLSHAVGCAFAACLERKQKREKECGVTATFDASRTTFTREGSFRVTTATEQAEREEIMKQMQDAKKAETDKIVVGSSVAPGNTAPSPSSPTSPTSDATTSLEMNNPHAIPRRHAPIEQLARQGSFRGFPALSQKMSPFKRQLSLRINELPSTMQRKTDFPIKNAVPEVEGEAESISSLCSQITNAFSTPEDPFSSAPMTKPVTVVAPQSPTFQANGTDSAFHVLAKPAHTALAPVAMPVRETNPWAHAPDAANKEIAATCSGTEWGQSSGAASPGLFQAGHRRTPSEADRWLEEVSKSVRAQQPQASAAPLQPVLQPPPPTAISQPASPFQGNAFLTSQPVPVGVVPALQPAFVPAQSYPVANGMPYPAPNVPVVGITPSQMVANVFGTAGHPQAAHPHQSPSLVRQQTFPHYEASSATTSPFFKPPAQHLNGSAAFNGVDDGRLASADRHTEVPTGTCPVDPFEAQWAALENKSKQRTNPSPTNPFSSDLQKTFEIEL
UniProt Q8TCD5, sequence (Q8TCD5 whole entry): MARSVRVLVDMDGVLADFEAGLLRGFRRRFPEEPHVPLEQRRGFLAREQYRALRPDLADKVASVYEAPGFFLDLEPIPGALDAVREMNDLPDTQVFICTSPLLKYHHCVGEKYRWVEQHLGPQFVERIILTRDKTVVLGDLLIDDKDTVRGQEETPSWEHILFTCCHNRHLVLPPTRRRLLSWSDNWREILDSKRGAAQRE
UniProt Q8IVD9, sequence (Q8IVD9 whole entry): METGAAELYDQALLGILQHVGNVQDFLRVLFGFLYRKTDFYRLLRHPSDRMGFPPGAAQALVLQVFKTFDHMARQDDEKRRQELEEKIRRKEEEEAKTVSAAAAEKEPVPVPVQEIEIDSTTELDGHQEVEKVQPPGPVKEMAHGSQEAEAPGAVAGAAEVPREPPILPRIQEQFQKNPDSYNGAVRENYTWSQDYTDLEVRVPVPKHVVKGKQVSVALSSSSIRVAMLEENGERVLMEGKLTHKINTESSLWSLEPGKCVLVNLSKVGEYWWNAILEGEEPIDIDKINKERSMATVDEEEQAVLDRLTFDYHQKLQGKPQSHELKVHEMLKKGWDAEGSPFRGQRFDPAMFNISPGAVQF
UniProt O43809, sequence (O43809 whole entry): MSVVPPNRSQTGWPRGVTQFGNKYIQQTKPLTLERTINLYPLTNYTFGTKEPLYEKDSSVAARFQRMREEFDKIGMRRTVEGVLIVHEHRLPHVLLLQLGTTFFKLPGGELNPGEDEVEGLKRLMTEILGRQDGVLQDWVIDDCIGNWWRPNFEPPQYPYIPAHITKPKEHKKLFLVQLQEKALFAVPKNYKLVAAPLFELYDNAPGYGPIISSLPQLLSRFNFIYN

Row | Target | thermal stability z-score (lipoamide; [1]) | thermal stability z-score (lipoamide; arsenate co-treatment: none) | thermal stability z-score (potassium arsenate)
1 | NPR1 (UniProt P16066) | -0.594 | -0.153 | 0.119
2 | NPR3 (UniProt P17342) | 0.2 | -0.339 | -0.486
3 | NPRL3 (UniProt Q12980) | -0.0487 | 0.0269 | -0.104
4 | NPTN (UniProt Q9Y639) | 0.275 | -0.0241 | 0.798
5 | NPTX1 (UniProt Q15818) | -3.62 | -3.29 | 0.869
6 | NQO1 (UniProt P15559) | 0.825 | 0.331 | 0.174
7 | NQO2 (UniProt P16083) | 1.23 | 0.788 | 0.389
8 | NR2C2AP (UniProt Q86WQ0) | -0.149 | -0.255 | 0.17
9 | NR3C1 (UniProt P04150) | -0.273 | -0.664 | -0.462
10 | NR4A1 (UniProt P22736) | 0.000871 | 0.0723 | 0.179
11 | NRAS (UniProt P01111) | 0.00516 | -0.21 | -0.271
12 | NRBF2 (UniProt Q96F24) | 0.638 | 0.117 | -0.0833
13 | NRBP1 (UniProt Q9UHY1) | -0.349 | -0.151 | 0.23
14 | NRDC (UniProt O43847) | -0.0123 | -0.0343 | 0.364
15 | NRDE2 (UniProt Q9H7Z3) | 0.0849 | 0.0451 | -0.184
16 | NRF1 (UniProt Q16656) | -0.282 | -0.0693 | 0.311
17 | NSDHL (UniProt Q15738) | 0.566 | 0.0586 | -0.401
18 | NSF (UniProt P46459) | -0.331 | -0.0542 | 0.232
19 | NSFL1C (UniProt Q9UNZ2) | 0.605 | 0.41 | 1.21
20 | NSL1 (UniProt Q96IY1) | 0.254 | -0.0663 | -0.0597
21 | NSMAF (UniProt Q92636) | -0.123 | -0.458 | -0.758
22 | NSMCE2 (UniProt Q96MF7) | 0.278 | 0.339 | 0.541
23 | NSMCE3 (UniProt Q96MG7) | -0.0975 | -0.0424 | 0.119
24 | NSMCE4A (UniProt Q9NXX6) | -0.245 | -0.35 | -0.055

Row | Target | thermal stability z-score (lipoamide; [1]) | thermal stability z-score (lipoamide; arsenate co-treatment: none) | thermal stability z-score (potassium arsenate)
25 | NSRP1 (UniProt Q9H0G5) | 0.844 | 0.0777 | 1.07
26 | NSUN2 (UniProt Q08J23) | -1.4 | -0.353 | -0.192
27 | NSUN4 (UniProt Q96CB9) | -0.26 | 0.337 | -0.318
28 | NSUN5 (UniProt Q96P11) | 0.469 | -0.155 | 0.136
29 | NSUN6 (UniProt Q8TEA1) | -0.141 | -0.366 | -0.526
30 | NT5C2 (UniProt P49902) | 0.892 | -0.608 | -0.0391
31 | NT5C3A (UniProt Q9H0P0) | 0.0681 | 0.155 | -1.77
32 | NT5C (UniProt Q8TCD5) | -0.442 | -0.516 | -0.982
33 | NT5DC1 (UniProt Q5TFE4) | 0.0662 | -0.687 | -0.749
34 | NT5DC2 (UniProt Q9H857) | 0.0403 | -0.251 | 0.13
35 | NT5DC3 (UniProt Q86UY8) | 0.036 | -0.0265 | -0.179
36 | NTHL1 (UniProt P78549) | 0.00215 | -0.00667 | -0.137
37 | NTMT1 (UniProt Q9BV86) | -0.319 | -0.204 | -0.137
38 | NTPCR (UniProt Q9BSD7) | -0.0779 | -0.905 | -0.753
39 | NUB1 (UniProt Q9Y5A7) | -0.391 | 0.421 | 1.15
40 | NUBP1 (UniProt P53384) | -0.23 | 0.385 | -0.302
41 | NUBP2 (UniProt Q9Y5Y2) | 0.35 | -0.855 | -0.461
42 | NUBPL (UniProt Q8TB37) | -0.216 | -0.498 | -0.262
43 | NUCB1 (UniProt Q02818) | -0.169 | -0.102 | -0.222
44 | NUCKS1 (UniProt Q9H1E3) | 0.697 | 0.845 | 0.5
45 | NUDC (UniProt Q9Y266) | 0.104 | 0.205 | 0.573
46 | NUDCD1 (UniProt Q96RS6) | -0.287 | -0.282 | -0.0861
47 | NUDCD2 (UniProt Q8WVJ2) | 0.599 | 0.779 | 0.58
48 | NUDCD3 (UniProt Q8IVD9) | -0.592 | -0.183 | 0.339

Row | Target | thermal stability z-score (lipoamide; [1]) | thermal stability z-score (lipoamide; arsenate co-treatment: none) | thermal stability z-score (potassium arsenate)
49 | NUDT1 (UniProt P36639) | 0.505 | 0.0984 | -0.00492
50 | NUDT2 (UniProt P50583) | -0.303 | -0.0026 | -0.0285
51 | NUDT3 (UniProt O95989) | 0.511 | 0.241 | -0.213
52 | NUDT4 (UniProt Q9NZJ9) | -0.239 | -0.659 | -0.881
53 | NUDT5 (UniProt Q9UKK9) | 0.871 | 0.881 | 0.191
54 | NUDT9 (UniProt Q9BW91) | -0.674 | -0.346 | 0.0652
55 | NUDT12 (UniProt Q9BQG2) | 0.0414 | 0.0448 | 0.253
56 | NUDT15 (UniProt Q9NV35) | 0.686 | 0.121 | -0.373
57 | NUDT16 (UniProt Q96DE0) | 0.938 | 0.232 | -0.335
58 | NUDT19 (UniProt A8MXV4) | -0.133 | 0.126 | -0.208
59 | NUDT21 (UniProt O43809) | 1.57 | 0.0301 | -0.633
60 | NUF2 (UniProt Q9BZD4) | -0.884 | -0.901 | 2.02
61 | NUFIP2 (UniProt Q7Z417) | 0.354 | 0.487 | 1.08
62 | NUMA1 (UniProt Q14980) | 0.34 | 0.207 | -1.48
63 | NUMB (UniProt P49757) | -0.402 | 0.201 | -2.09
64 | NUMBL (UniProt Q9Y6R0) | 0.0444 | 0.451 | -1.68
65 | NUP35 (UniProt Q8NFH5) | 0.043 | -0.376 | 1.25
66 | NUP37 (UniProt Q8NFH4) | 0.338 | -0.0489 | 0.82
67 | NUP43 (UniProt Q8NFH3) | 2.43 | 0.779 | 1.58
68 | NUP50 (UniProt Q9UKX7) | 1.4 | 1.06 | 0.502
69 | NUP54 (UniProt Q7Z3B4) | 0.342 | 0.00636 | 0.309
70 | NUP58 (UniProt Q9BVL2) | 2.2 | 0.178 | 0.865
71 | NUP62 (UniProt P37198) | -0.129 | -0.358 | 0.329

Reference: the supplement of paper PMC12463676, “Small-molecule dissolution of stress granules by redox modulation benefits ALS models” (Nature Chemical Biology, 2025)
